{"source": "patent EP4803513A1", "about": "“SUBSTITUTED QUINAZOLINE COMPOUND, PREPARATION METHOD THEREFOR, PHARMACEUTICAL COMBINATION THEREOF, AND USE THEREOF” (Hongyun Biotech Co., Ltd., priority 2023, dated 2025)", "key": {"[1]": {"tested_on": "BRK-BaF3 cells", "test": "Cell antiproliferative activity assay (CCK-8), BRK-BaF3", "format": "cell-based", "details": "72 h, CCK-8, 3 days incubation", "description": "(§1) The activity of compounds against BRK kinase can be evaluated by their inhibition of the growth of the BRK kinase-stably transfected BaF3 cell line (BRK-BaF3) and wild-type BaF3 cells (WT-BaF3). […] The larger the ratio of the half-maximal growth inhibitory concentration (IC50) of a compound between WT-BaF3 and BRK-BaF3 cells, the better the selectivity of the compound.\n(§2) BRK-BaF3, WT-BaF3, WEHI cell line, and breast cancer cell line T47D were cultured using RPMI 1640 Basal medium or DMEM (Dulbecco's Modified Eagle Medium) (Shanghai Peiyuan Biotechnology, L220KJ), supplemented with 10% FBS (Gibco, REF 10099-141C) and 1% P/S (Shanghai Peiyuan Biotechnology, S110JV), in an incubator (Thermo 3020) at 37°C with 5% CO2. Cell viability was above 95%. Cells were passaged at a 3:1 ratio every 3-4 days. For WT-BaF3 cells, WEHI cells were first cultured, and their culture supernatant was filtered through a 0.22 µm filter. This supernatant was added at 10% to the regular culture medium to supplement IL-3 required for WT-BaF3 cell proliferation, which served as the culture medium for WT-BaF3. For testing, cells were first collected and counted, then prepared into a cell suspension at 100,000 cells/mL and plated at 100 µL per well. Drug concentrations started from 10 µM and were serially diluted 3:1. After incubation for 3 days, 20 µL of CCK-8 detection reagent (Targetmol C005) was added to each well. After incubation for 2-4 hours, OD450 was measured using a microplate reader (Varioskan LUX, Thermo Scientific). After subtracting the blank background, the curve was fitted and the IC50 was calculated using XLfit software."}, "[2]": {"tested_on": "WT-BaF3 cells", "test": "Cell antiproliferative activity assay (CCK-8), WT-BaF3 (broad-spectrum cytotoxicity)", "format": "cell-based", "details": "72 h; WT-BaF3 cells (IL-3 supplemented), CCK-8, 3 days incubation", "description": "as §1, §2"}}, "note": "pIC50: −log10 of the molar value.", "data": [{"smiles": "Cc1nn(CC(C)(C)O)cc1Nc1ncc2cc(-c3nccnc3C)cc(C(C)C)c2n1", "note": "[I-101]", "values": [{"measurement": "pIC50", "setting": "[1]", "result": "≥ 7.70"}, {"measurement": "pIC50", "setting": "[2]", "result": "< 5.60"}]}, {"smiles": "Cc1nn(C)cc1Nc1ncc2cc(-c3c(C)ncnc3C)cc(C(C)C)c2n1", "note": "[III-93]", "values": [{"measurement": "pIC50", "setting": "[1]", "result": "≥ 7.70"}, {"measurement": "pIC50", "setting": "[2]", "result": "< 5.60"}]}, {"smiles": "Cc1nn(CC(N)=O)cc1Nc1ncc2cc(-c3nccnc3C)cc(C3CC3)c2n1", "note": "[III-114]", "values": [{"measurement": "pIC50", "setting": "[1]", "result": "≥ 7.70"}, {"measurement": "pIC50", "setting": "[2]", "result": "5.60 to 6.30"}]}, {"smiles": "Cc1c[nH]c(=O)cc1-c1cc(C2CC2)c2nc(Nc3cnn(C4COC4)c3C)ncc2c1", "note": "[III-83]", "values": [{"measurement": "pIC50", "setting": "[1]", "result": "≥ 7.70"}, {"measurement": "pIC50", "setting": "[2]", "result": "< 5.60"}]}, {"smiles": "Cc1nccnc1-c1cc(C(C)C)c2nc(Nc3cnn(C4CCN(C)CC4)c3C)ncc2c1", "note": "[III-107]", "values": [{"measurement": "pIC50", "setting": "[1]", "result": "≥ 7.70"}, {"measurement": "pIC50", "setting": "[2]", "result": "< 5.60"}]}, {"smiles": "Cc1nn(CCN=S(C)(C)=O)cc1Nc1ncc2cc(-c3nccnc3C)cc(C(C)C)c2n1", "note": "[III-112]", "values": [{"measurement": "pIC50", "setting": "[1]", "result": "7.00 to 7.70"}, {"measurement": "pIC50", "setting": "[2]", "result": "< 5.60"}]}, {"smiles": "Cc1ncnc(C)c1-c1cc(C(F)(F)F)c2nc(Nc3cnn(CCO)c3)ncc2c1", "note": "[I-149]", "values": [{"measurement": "pIC50", "setting": "[1]", "result": "7.00 to 7.70"}, {"measurement": "pIC50", "setting": "[2]", "result": "< 5.60"}]}, {"smiles": "Cc1nc(Nc2ncc3cc(-c4nccnc4C)cc(C(C)C)c3n2)ccc1P(C)(C)=O", "note": "[II-10]", "values": [{"measurement": "pIC50", "setting": "[1]", "result": "7.00 to 7.70"}, {"measurement": "pIC50", "setting": "[2]", "result": "< 5.60"}]}, {"smiles": "Cc1nc(P(C)(C)=O)ccc1Nc1ncc2cc(-c3nccnc3C)cc(C(C)C)c2n1", "note": "[II-1]", "values": [{"measurement": "pIC50", "setting": "[1]", "result": "≥ 7.70"}, {"measurement": "pIC50", "setting": "[2]", "result": "< 5.60"}]}, {"smiles": "Cc1nn(CCO)cc1Nc1ncc2cc(-c3cccnc3)cc(C3CC3)c2n1", "note": "[I-72]", "values": [{"measurement": "pIC50", "setting": "[1]", "result": "≥ 7.70"}, {"measurement": "pIC50", "setting": "[2]", "result": "6.30 to 7.00"}]}, {"smiles": "Cc1nn(CCO)cc1Nc1ncc2cc(-c3cccnc3)cc(C(F)(F)F)c2n1", "note": "[I-75]", "values": [{"measurement": "pIC50", "setting": "[1]", "result": "≥ 7.70"}, {"measurement": "pIC50", "setting": "[2]", "result": "< 5.60"}]}, {"smiles": "Cc1cc(P(C)(C)=O)ccc1Nc1ncc2cc(-c3nccnc3C)cc(C(C)C)c2n1", "note": "[II-13]", "values": [{"measurement": "pIC50", "setting": "[1]", "result": "7.00 to 7.70"}, {"measurement": "pIC50", "setting": "[2]", "result": "< 5.60"}]}, {"smiles": "Cc1nn(CCO)cc1Nc1ncc2cc(-c3c(O)cccc3F)cc(C(C)C)c2n1", "note": "[I-155]", "values": [{"measurement": "pIC50", "setting": "[1]", "result": "≥ 7.70"}, {"measurement": "pIC50", "setting": "[2]", "result": "5.60 to 6.30"}]}, {"smiles": "Cc1nn(CCO)cc1Nc1ncc2cc(-c3cccnc3C)cc(C(F)(F)F)c2n1", "note": "[I-76]", "values": [{"measurement": "pIC50", "setting": "[1]", "result": "≥ 7.70"}, {"measurement": "pIC50", "setting": "[2]", "result": "< 5.60"}]}, {"smiles": "Cc1nn(C2CCN(C)CC2)cc1Nc1ncc2cc(-c3nccnc3C)cc(C(C)C)c2n1", "note": "[III-106]", "values": [{"measurement": "pIC50", "setting": "[1]", "result": "≥ 7.70"}, {"measurement": "pIC50", "setting": "[2]", "result": "5.60 to 6.30"}]}, {"smiles": "Cc1nn(CCO)cc1Nc1ncc2cc(-c3cc(F)cnc3C)cc(C3CC3)c2n1", "note": "[I-74]", "values": [{"measurement": "pIC50", "setting": "[1]", "result": "≥ 7.70"}, {"measurement": "pIC50", "setting": "[2]", "result": "5.60 to 6.30"}]}, {"smiles": "Cc1cc(Nc2ncc3cc(-c4c(C)ncnc4C)cc(C(C)C)c3n2)c(F)cc1P(C)(C)=O", "note": "[II-59]", "values": [{"measurement": "pIC50", "setting": "[1]", "result": "7.00 to 7.70"}, {"measurement": "pIC50", "setting": "[2]", "result": "< 5.60"}]}, {"smiles": "Cc1nn(C2COC2)cc1Nc1ncc2cc(-c3nccnc3C)cc(C(C)C)c2n1", "note": "[III-104]", "values": [{"measurement": "pIC50", "setting": "[1]", "result": "≥ 7.70"}, {"measurement": "pIC50", "setting": "[2]", "result": "< 5.60"}]}, {"smiles": "Cc1nn(CCO)cc1Nc1ncc2cc(-c3cccnc3C3CC3)cc(C(C)C)c2n1", "note": "[I-28]", "values": [{"measurement": "pIC50", "setting": "[1]", "result": "7.00 to 7.70"}, {"measurement": "pIC50", "setting": "[2]", "result": "5.60 to 6.30"}]}, {"smiles": "Cc1nccnc1-c1cc(C2CC2)c2nc(Nc3ccc(P(C)(C)=O)cc3)ncc2c1", "note": "[II-30]", "values": [{"measurement": "pIC50", "setting": "[1]", "result": "≥ 7.70"}, {"measurement": "pIC50", "setting": "[2]", "result": "5.60 to 6.30"}]}, {"smiles": "Cc1cc(Nc2ncc3cc(-c4nccnc4C)cc(C(C)C)c3n2)ncc1P(C)(C)=O", "note": "[II-9]", "values": [{"measurement": "pIC50", "setting": "[1]", "result": "7.00 to 7.70"}, {"measurement": "pIC50", "setting": "[2]", "result": "< 5.60"}]}, {"smiles": "Cc1nn(CCO)cc1Nc1ncc2cc(-c3nnccc3C#N)cc(C(C)C)c2n1", "note": "[I-117]", "values": [{"measurement": "pIC50", "setting": "[1]", "result": "7.00 to 7.70"}, {"measurement": "pIC50", "setting": "[2]", "result": "< 5.60"}]}, {"smiles": "Cc1nccnc1-c1cc(C(F)(F)F)c2nc(Nc3ccc(P(C)(C)=O)cc3)ncc2c1", "note": "[II-34]", "values": [{"measurement": "pIC50", "setting": "[1]", "result": "≥ 7.70"}, {"measurement": "pIC50", "setting": "[2]", "result": "< 5.60"}]}, {"smiles": "Cc1nccnc1-c1cc(C(C)C)c2nc(Nc3ccc(P(C)(C)=O)cn3)ncc2c1", "note": "[II-8]", "values": [{"measurement": "pIC50", "setting": "[1]", "result": "7.00 to 7.70"}, {"measurement": "pIC50", "setting": "[2]", "result": "< 5.60"}]}, {"smiles": "COc1cnccc1-c1cc(C(C)C)c2nc(Nc3cn(CCO)nc3C)ncc2c1", "note": "[I-13]", "values": [{"measurement": "pIC50", "setting": "[1]", "result": "≥ 7.70"}, {"measurement": "pIC50", "setting": "[2]", "result": "< 5.60"}]}, {"smiles": "Cc1cc(Nc2ncc3cc(-c4nccnc4C)cc(C(C)C)c3n2)cnc1P(C)(C)=O", "note": "[II-6]", "values": [{"measurement": "pIC50", "setting": "[1]", "result": "≥ 7.70"}, {"measurement": "pIC50", "setting": "[2]", "result": "< 5.60"}]}, {"smiles": "Cc1nn(CCO)cc1Nc1ncc2cc(-c3nccnc3N)cc(C3CC3)c2n1", "note": "[I-105]", "values": [{"measurement": "pIC50", "setting": "[1]", "result": "≥ 7.70"}, {"measurement": "pIC50", "setting": "[2]", "result": "5.60 to 6.30"}]}, {"smiles": "Cc1cc(Nc2ncc3cc(-c4c(C)ncnc4C)cc(C(C)C)c3n2)cnc1P(C)(C)=O", "note": "[II-45]", "values": [{"measurement": "pIC50", "setting": "[1]", "result": "≥ 7.70"}, {"measurement": "pIC50", "setting": "[2]", "result": "< 5.60"}]}, {"smiles": "Cc1nn(CCO)cc1Nc1ncc2cc(-c3nccnc3C)cc(C3CC3)c2n1", "note": "[I-103]", "values": [{"measurement": "pIC50", "setting": "[1]", "result": "≥ 7.70"}, {"measurement": "pIC50", "setting": "[2]", "result": "5.60 to 6.30"}]}]}
